Assay results reported in publication PMC10999543, “Identification of kinase modulators as host-directed therapeutics against intracellular methicillin-resistant Staphylococcus aureus” (Frontiers in Cellular and Infection Microbiology, 2024).
Read-outs that look alike come from different tables or passages of the source.

Legend:
HeLa cells = assay: Compound screen by flow cytometry: HeLa cell count as surrogate readout of cell viability (z-scoreHeLa); format: cell-based, human; further: test concentration or dose not given here
Outline: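 The viability surrogate was the count of fixed HeLa cells by flow cytometry, converted to z-scores against DMSO controls with values deviating two-fold excluded. Before counting, cells had been infected with MRSA for 1 h and cleared of extracellular bacteria with gentamicin. They were then exposed overnight to kinase inhibitors in triplicate.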

intracellular MRSA = format: cell-based, Staphylococcus aureus; conditions: for %GFP+ rep 1 / z-scoreMRSA+ rep 1: replicate 1; for %GFP+ rep 2 / z-scoreMRSA+ rep 2: replicate 2; for %GFP+ rep 3 / z-scoreMRSA+ rep 3: replicate 3; for z-scoreMRSA+ mean: mean of 3 replicates; on %GFP+ rep 1: test concentration or dose not given here; on %GFP+ rep 2: test concentration or dose not given here; on %GFP+ rep 3: test concentration or dose not given here; on effect: test concentration or dose not given here; on z-scoreMRSA+ mean: test concentration or dose not given here; on z-scoreMRSA+ rep 1: test concentration or dose not given here; on z-scoreMRSA+ rep 2: test concentration or dose not given here; on z-scoreMRSA+ rep 3: test concentration or dose not given here
Outline: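 Values are z-scores: GFP-positive HeLa percentage and event count per well against plate statistics, minus the mean DMSO z-score. Wells deviating two-fold from controls were left out of plate means. Infection was at a mean MOI of 6.8, with an overnight compound exposure.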

[1] = PKIS compound screen raw data, HeLa cell count, replicate 1
[2] = PKIS compound screen raw data, HeLa cell count, replicate 2
[3] = PKIS compound screen raw data, HeLa cell count, replicate 3
[4] = PKIS compound screen, HeLa cell count, mean of 3 replicates
[5] = PKIS compound screen, HeLa cell count, replicate 1
[6] = PKIS compound screen, HeLa cell count, replicate 2
[7] = PKIS compound screen, HeLa cell count, replicate 3
[8] = PKIS compound screen, Yes/No call on z-scoreHeLa
[9] = PKIS compound screen raw data, MRSA-infected HeLa cells
[10] = PKIS compound screen, MRSA-infected HeLa cells
[11] = PKIS compound screen, Yes/No call (effect without cell death)
[12] = PKIS compound screen, Yes/No call on z-scoreMRSA+
[13] = PKIS compound screen, Yes/No call
[14] = PKIS compound screen, mean of 3 replicates
[15] = PKIS compound screen, replicate 1
[16] = PKIS compound screen, replicate 2
[17] = PKIS compound screen, replicate 3
[18] = PKIS compounds raw data, replicate 1, HeLa cell count
[19] = PKIS compounds raw data, replicate 2, HeLa cell count
[20] = PKIS compounds raw data, replicate 3, HeLa cell count
[21] = compound screen, HeLa cell count, mean of 3 replicates
[22] = compound screen, HeLa cell count, replicate 1
[23] = compound screen, HeLa cell count, replicate 2
[24] = compound screen, HeLa cell count, replicate 3
[25] = PKIS compounds raw data, MRSA-infected HeLa cells
[26] = Yes/No: effect without cell death
[27] = compound screen, MRSA-infected HeLa cells

Structure (SMILES) | cell count rep 1 (HeLa cells; [1]) | cell count rep 2 (HeLa cells; [2]) | cell count rep 3 (HeLa cells; [3]) | z-scoreHeLa mean (HeLa cells; [4]) | %GFP+ rep 1 (intracellular MRSA; [9]) [%] | %GFP+ rep 2 (intracellular MRSA; [9]) [%] | %GFP+ rep 3 (intracellular MRSA; [9]) [%] | hit (intracellular MRSA; [11]) | cell count rep 1 (HeLa cells; [18]) | cell count rep 2 (HeLa cells; [19]) | cell count rep 3 (HeLa cells; [20]) | %GFP+ rep 1 (intracellular MRSA; [25]) [%] | %GFP+ rep 2 (intracellular MRSA; [25]) [%] | %GFP+ rep 3 (intracellular MRSA; [25]) [%] | effect (intracellular MRSA; Yes/No call from z-scoreMRSA+) | hit (intracellular MRSA; [26]) | z-scoreMRSA+ mean (intracellular MRSA; [27]) | z-scoreMRSA+ rep 1 (intracellular MRSA; [27]) | z-scoreMRSA+ rep 2 (intracellular MRSA; [27]) | z-scoreMRSA+ rep 3 (intracellular MRSA; [27]) | other results
CCOc1ccc2c(-c3ccnc(Nc4cccc(C(F)(F)F)c4)n3)cnn2n1 [GW811761X] | 25545 | 40447 | 52915 | 1.28 | 16.8 | 16.8 | 18.1 | No |  |  |  |  |  |  |  |  |  |  |  |  | z-scoreHeLa rep 1 (HeLa cells; [5]): 0.82; z-scoreHeLa rep 2 (HeLa cells; [6]): 1.06; z-scoreHeLa rep 3 (HeLa cells; [7]): 1.97; cell death (HeLa cells; [8]): No; z-scoreMRSA+ mean (intracellular MRSA; [10]): -0.46; z-scoreMRSA+ rep 1 (intracellular MRSA; [10]): -0.34; z-scoreMRSA+ rep 2 (intracellular MRSA; [10]): -0.52; z-scoreMRSA+ rep 3 (intracellular MRSA; [10]): -0.51; effect (intracellular MRSA; [12]): No
N#Cc1ccc(CCNc2nccc(-c3cccc(CN4CCNCC4)c3)n2)cc1 [GSK2137462A] | 48589 | 40019 | 40009 |  | 14.3 | 14.4 | 16.1 | No | 5843 | 6203 | 5956 | 26.7 | 25.4 | 26.0 | No | No | -1.32 | -1.20 | -1.37 | -1.40 | cell death (HeLa cells; [13]): No; z-scoreHeLa mean (HeLa cells; [14]): 0.08; z-scoreHeLa rep 1 (HeLa cells; [15]): -0.12; z-scoreHeLa rep 2 (HeLa cells; [16]): 0.13; z-scoreHeLa rep 3 (HeLa cells; [17]): 0.23; cell death (HeLa cells; Yes/No call from z-scoreHeLa): No; z-scoreHeLa mean (HeLa cells; [21]): 3.25; z-scoreHeLa rep 1 (HeLa cells; [22]): 3.12; z-scoreHeLa rep 2 (HeLa cells; [23]): 2.53; z-scoreHeLa rep 3 (HeLa cells; [24]): 4.11; effect (intracellular MRSA; [13]): No; z-scoreMRSA+ mean (intracellular MRSA; PKIS compound screen): -0.14; z-scoreMRSA+ rep 1 (intracellular MRSA; PKIS compound screen): -0.07; z-scoreMRSA+ rep 2 (intracellular MRSA; PKIS compound screen): -0.12; z-scoreMRSA+ rep 3 (intracellular MRSA; PKIS compound screen): -0.24
Cc1cccc(-c2nc(Nc3ccc4c(cnn4C)c3)c3ccccc3n2)n1 [GW876731X] | 29057 | 27157 | 25742 |  | 19.5 | 19.1 | 19.8 |  |  |  |  |  |  |  | No | No | -0.09 | 0.19 | -0.0842 | -0.39 | cell death (HeLa cells; Yes/No call from z-scoreHeLa): No; z-scoreHeLa mean (HeLa cells; [21]): 0.49; z-scoreHeLa rep 1 (HeLa cells; [22]): -0.19; z-scoreHeLa rep 2 (HeLa cells; [23]): 0.32; z-scoreHeLa rep 3 (HeLa cells; [24]): 1.33
Cn1cc(-c2cnc(N)c3c(-c4ccc5c(c4)CCN5C(=O)Cc4ccccc4)csc23)cn1 [GSK2593074A] |  |  |  |  |  |  |  |  | 857 | 369 | 1620 | 24.8 | 21.4 | 19.2 | No | No | 2.45 | 3.72 | 2.64 | 0.98 | cell death (HeLa cells; Yes/No call from z-scoreHeLa): Yes; z-scoreHeLa mean (HeLa cells; [21]): -3.02; z-scoreHeLa rep 1 (HeLa cells; [22]): -3.54; z-scoreHeLa rep 2 (HeLa cells; [23]): -2.95; z-scoreHeLa rep 3 (HeLa cells; [24]): -2.56
c1ccc(-c2cc3ccncc3cc2OC2CCNCC2)cc1 [GSK1122999D] | 28278 | 18056 | 22119 | -0.31 | 16.9 | 18.4 | 20.9 | No | 8742 | 6353 | 6306 | 29.2 | 28.1 | 31.8 |  |  |  |  |  |  | z-scoreHeLa rep 1 (HeLa cells; [5]): -0.33; z-scoreHeLa rep 2 (HeLa cells; [6]): -1.24; z-scoreHeLa rep 3 (HeLa cells; [7]): 0.62; cell death (HeLa cells; [13]): No; cell death (HeLa cells; [8]): No; z-scoreHeLa mean (HeLa cells; [14]): 0.77; z-scoreHeLa rep 1 (HeLa cells; [15]): 1.62; z-scoreHeLa rep 2 (HeLa cells; [16]): 0.23; z-scoreHeLa rep 3 (HeLa cells; [17]): 0.45; z-scoreMRSA+ mean (intracellular MRSA; [10]): -0.29; z-scoreMRSA+ rep 1 (intracellular MRSA; [10]): -0.50; z-scoreMRSA+ rep 2 (intracellular MRSA; [10]): -0.28; z-scoreMRSA+ rep 3 (intracellular MRSA; [10]): -0.09; effect (intracellular MRSA; [13]): No; effect (intracellular MRSA; [12]): No; z-scoreMRSA+ mean (intracellular MRSA; PKIS compound screen): 0.55; z-scoreMRSA+ rep 1 (intracellular MRSA; PKIS compound screen): 0.42; z-scoreMRSA+ rep 2 (intracellular MRSA; PKIS compound screen): 0.40; z-scoreMRSA+ rep 3 (intracellular MRSA; PKIS compound screen): 0.84
COc1ccc(Nc2nccc(N3CCC(NC(=O)Nc4cccc(C(C)=O)c4)C3)n2)cc1 (stereo not drawn) [GSK1379731A] | 33897 | 29436 | 19502 | 0.48 | 20.9 | 21.1 | 24.3 | No | 8450 | 7898 | 6635 | 29.8 | 28.2 | 27.3 |  |  |  |  |  |  | z-scoreHeLa rep 1 (HeLa cells; [5]): 0.63; z-scoreHeLa rep 2 (HeLa cells; [6]): 0.71; z-scoreHeLa rep 3 (HeLa cells; [7]): 0.11; cell death (HeLa cells; [13]): No; cell death (HeLa cells; [8]): No; z-scoreHeLa mean (HeLa cells; [14]): 1.12; z-scoreHeLa rep 1 (HeLa cells; [15]): 1.44; z-scoreHeLa rep 2 (HeLa cells; [16]): 1.25; z-scoreHeLa rep 3 (HeLa cells; [17]): 0.66; z-scoreMRSA+ mean (intracellular MRSA; [10]): 0.62; z-scoreMRSA+ rep 1 (intracellular MRSA; [10]): 0.57; z-scoreMRSA+ rep 2 (intracellular MRSA; [10]): 0.46; z-scoreMRSA+ rep 3 (intracellular MRSA; [10]): 0.84; effect (intracellular MRSA; [13]): No; effect (intracellular MRSA; [12]): No; z-scoreMRSA+ mean (intracellular MRSA; PKIS compound screen): 0.32; z-scoreMRSA+ rep 1 (intracellular MRSA; PKIS compound screen): 0.53; z-scoreMRSA+ rep 2 (intracellular MRSA; PKIS compound screen): 0.41; z-scoreMRSA+ rep 3 (intracellular MRSA; PKIS compound screen): 0.00589
O=C1Nc2ccc(I)cc2C1=Cc1cc(Br)c(O)c(Br)c1 [GW305074X] |  |  |  |  | 19.6 | 17.6 | 21.1 |  |  |  |  |  |  |  | No | No | -0.96 | -1.32 | -1.22 | -0.33 | cell death (HeLa cells): No; cell count rep 1 (HeLa cells; human): 1595; cell count rep 2 (HeLa cells; human): 1814; cell count rep 3 (HeLa cells; human): 1196; z-scoreHeLa mean (HeLa cells; human): -2.15; z-scoreHeLa rep 1 (HeLa cells; human): -1.99; z-scoreHeLa rep 2 (HeLa cells; human): -1.91; z-scoreHeLa rep 3 (HeLa cells; human): -2.55
